Reference: PubChem BioAssay AID2060503 (Molecular Pharmacology Branch, DTP, NCI, 2025)

Test system: 817829-284-R-J1-PDC complex spheroids, viability
Assay: Anticancer human tumor 817829-284-R-J1-PDC patient-derived colon adenocarcinoma cell line growth inhibition [GQUAD]
Conditions: for IC50: curve of first compound; for viability, T/C: stronger effect = lower value
Procedure, shortened: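 Viability of tumor cells grown as complex spheroids with endothelial and stromal cells, exposed to drug combinations. Top concentration at or near clinical Cmax (else 10 microM), diluted in half-log increments.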

[1] = second compound 0.0316 µM, first compound 0.0316 µM
[2] = second compound 0.0316 µM, first compound 0.1 µM
[3] = second compound 0.0316 µM, first compound 0.316 µM
[4] = second compound 0.0316 µM, first compound 1 µM
[5] = second compound 0.0316 µM, first compound 3.16 µM
[6] = second compound 0.0316 µM, first compound 10 µM
[7] = second compound 0.1 µM, first compound 0.0316 µM
[8] = second compound 0.1 µM, first compound 0.1 µM
[9] = second compound 0.1 µM, first compound 0.316 µM
[10] = second compound 0.1 µM, first compound 1 µM
[11] = second compound 0.1 µM, first compound 3.16 µM
[12] = second compound 0.1 µM, first compound 10 µM
[13] = second compound 0.316 µM, first compound 0.0316 µM
[14] = second compound 0.316 µM, first compound 0.1 µM
[15] = second compound 0.316 µM, first compound 0.316 µM
[16] = second compound 0.316 µM, first compound 1 µM
[17] = second compound 0.316 µM, first compound 3.16 µM
[18] = second compound 0.316 µM, first compound 10 µM
[19] = second compound 1 µM, first compound 0.0316 µM
[20] = second compound 1 µM, first compound 0.1 µM
[21] = second compound 1 µM, first compound 0.316 µM
[22] = second compound 1 µM, first compound 1 µM
[23] = second compound 1 µM, first compound 3.16 µM
[24] = second compound 1 µM, first compound 10 µM
[25] = second compound 3.16 µM, first compound 0.0316 µM
[26] = second compound 3.16 µM, first compound 0.1 µM
[27] = second compound 3.16 µM, first compound 0.316 µM
[28] = second compound 3.16 µM, first compound 1 µM
[29] = second compound 3.16 µM, first compound 3.16 µM
[30] = second compound 3.16 µM, first compound 10 µM
[31] = second compound 10 µM, first compound 0.0316 µM
[32] = second compound 10 µM, first compound 0.1 µM
[33] = second compound 10 µM, first compound 0.316 µM
[34] = second compound 10 µM, first compound 1 µM
[35] = second compound 10 µM, first compound 3.16 µM
[36] = second compound 10 µM, first compound 10 µM
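Also: spheroids exposed to agents for 7 days before readout.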
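For viability, T/C in this document: percent viability relative to DMSO vehicle control taken as 100%.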

O=C(NO)c1cnc(N2CCN(S(=O)(=O)c3ccc4ccccc4c3)CC2)nc1 + Cc1[nH]c2ccc(F)cc2c1-c1nc2c3cccnc3c3ncccc3c2[nH]1
IC50 (second compound 0.0316 µM): 166 nM | IC50 (second compound 0.1 µM): 189 nM | IC50 (second compound 0.316 µM): 195 nM | IC50 (second compound 1 µM): 186 nM | IC50 (second compound 3.16 µM): < 31.6 nM | IC50 (second compound 10 µM): < 31.6 nM | viability, T/C [1]: 97% | viability, T/C [2]: 88.9% | viability, T/C [3]: 0.76% | viability, T/C [4]: 0.18% | viability, T/C [5]: 0.1% | viability, T/C [6]: 0.14% | viability, T/C [7]: 101% | viability, T/C [8]: 120% | viability, T/C [9]: 1.55% | viability, T/C [10]: 0.16% | viability, T/C [11]: 0.08% | viability, T/C [12]: 0.16% | viability, T/C [13]: 101% | viability, T/C [14]: 128% | viability, T/C [15]: 3.53% | viability, T/C [16]: 0.12% | viability, T/C [17]: 0.08% | viability, T/C [18]: 0.15% | viability, T/C [19]: 118% | viability, T/C [20]: 106% | viability, T/C [21]: 1.91% | viability, T/C [22]: 0.1% | viability, T/C [23]: 0.08% | viability, T/C [24]: 0.14% | viability, T/C [25]: 9.69% | viability, T/C [26]: 13.6% | viability, T/C [27]: 0.27% | viability, T/C [28]: 0.1% | viability, T/C [29]: 0.08% | viability, T/C [30]: 0.13% | viability, T/C [31]: 5.27% | viability, T/C [32]: 7.46% | viability, T/C [33]: 0.18% | viability, T/C [34]: 0.12% | viability, T/C [35]: 0.17% | viability, T/C [36]: 0.15%

O=C(c1cc(Cc2n[nH]c(=O)c3ccccc23)ccc1F)N1CCN(C(=O)C2CC2)CC1 + Cc1cnc(CNC(=O)c2c(=O)c3ccc(N4CCCN(C)CC4)nc3n3c2sc2ccccc23)cn1
IC50 (second compound 0.0316 µM): 1080 nM | IC50 (second compound 0.1 µM): < 31.6 nM | IC50 (second compound 0.316 µM): < 31.6 nM | IC50 (second compound 1 µM): < 31.6 nM | IC50 (second compound 3.16 µM): < 31.6 nM | IC50 (second compound 10 µM): < 31.6 nM | viability, T/C [1]: 78.9% | viability, T/C [2]: 65.2% | viability, T/C [3]: 58.5% | viability, T/C [4]: 51.6% | viability, T/C [5]: 44.2% | viability, T/C [6]: 35.6% | viability, T/C [7]: 30.9% | viability, T/C [8]: 33.5% | viability, T/C [9]: 32.9% | viability, T/C [10]: 32.1% | viability, T/C [11]: 33.8% | viability, T/C [12]: 29.9% | viability, T/C [13]: 24.3% | viability, T/C [14]: 24.5% | viability, T/C [15]: 25.1% | viability, T/C [16]: 23.7% | viability, T/C [17]: 26.4% | viability, T/C [18]: 27.4% | viability, T/C [19]: 18.6% | viability, T/C [20]: 23.9% | viability, T/C [21]: 20.3% | viability, T/C [22]: 22.8% | viability, T/C [23]: 23.1% | viability, T/C [24]: 23.4% | viability, T/C [25]: 18.1% | viability, T/C [26]: 21% | viability, T/C [27]: 21.3% | viability, T/C [28]: 19% | viability, T/C [29]: 20% | viability, T/C [30]: 21.4% | viability, T/C [31]: 0.17% | viability, T/C [32]: 0.18% | viability, T/C [33]: 0.22% | viability, T/C [34]: 0.2% | viability, T/C [35]: 0.22% | viability, T/C [36]: 0.21%
